In ChEMBL document CHEMBL4261542, “Recent advances in combretastatin based derivatives and prodrugs as antimitotic agents” (Medchemcomm, 2017) one finds IC50 data, which are given here for six compounds.

Test [1] in a line: Inhibition of [3H]colchicine binding to bovine brain tubulin after 20 mins by spectrophotometric analysis. Details: species or system Bos taurus.
The target of a further test is Tubulin. The test is described as follows: Inhibition of tubulin polymerization (unknown origin). It is filed as protein-complex assay, Homo sapiens.
For a further test, the system named is DU-145. The test is described as follows: Antiproliferative activity against human DU145 cells after 48 hrs by MTT assay. It is filed as functional, cell-based. Conditions: DU-145, 48 h. In general terms: Formazan colour is commonly taken as a measure of viable cells.
In a further test the test system is KB. The test is described as follows: Antiproliferative activity against human KB cells after 72 hrs by MTT assay. Type of test: functional, cell-based.
The next test relates to L929. The test is described as follows: Cytotoxicity against mouse L929 cells after 72 hrs by MTT assay. Type of test: cell-based. Conditions: L929, 72 h.
Another test has as its system SGC-7901. The test is described as follows: Antiproliferative activity against human SGC7901 cells after 72 hrs by MTT assay. It is filed as functional, cell-based. As to conditions: SGC-7901, 72 h.
The test system of the next test is HT-1080. The test is described as follows: Antiproliferative activity against human HT1080 cells after 72 hrs by MTT assay. As to conditions: HT-1080, 72 h. Type of test: functional, cell-based.
The next test has as its system MCF7. The test is described as follows: Antiproliferative activity against human MCF7 cells. It is filed as functional, cell-based.
The test system of a further test is A549. The test is described as follows: Antiproliferative activity against human A549 cells. Type of test: functional, cell-based.

What is called IC50 is the midpoint of a concentration-inhibition curve.

For the compound `CCOc1ccc(-c2nccn2-c2cc(OC)c(OC)c(OC)c2)cc1Cl`, the IC50 in [1] turned out to be 870 nM.
As to `CCOc1ccc(-c2cc(C)nn2-c2cc(OC)c(OC)c(OC)c2)cc1Cl`, the midpoint of inhibition against Tubulin, the IC50, lay at 1700 nM.
Compound `COc1cc(/C=C(\c2cc(OC)c(OC)c(OC)c2)c2nnc(-c3cc(OC)c(OC)c(OC)c3)o2)ccc1O` registered an IC50 in the test with DU-145 of 100 nM.
As to `COc1cc(-n2c(C)ccc2-c2cc(OC)c(OC)c(OC)c2)ccc1N`, the half-maximal inhibitory concentration (IC50) was 45 nM in the test on KB, 30100 nM in the test with L929, 390 nM with SGC-7901 and 70 nM with HT-1080.
On Tubulin, `COc1ccc(N2C(=O)CSC2c2cc(OC)c(OC)c(OC)c2)cc1` (stereo not given) gave an IC50 of 2120 nM.
In the case of `COc1cc(/C=C(\c2cc(OC)c(OC)c(OC)c2)c2nc3cc(OC)c(OC)cc3o2)ccc1O`, the IC50 in the test with MCF7 and in the test on A549 was < 100 nM in each case.
